The values below come from the NIST ThermoML archive (doi:10.1021/je100028s).

The conditions of this series: Liquid; for mass density: 293.1 K, 101.33 kPa, Pycnometric method; for vapor or sublimation pressure: Closed cell (Static) method.

± gives the expanded uncertainty stated by the source.

Broadly, the mass density is mass per unit of volume. By vapor or sublimation pressure is commonly meant the pressure of vapour in equilibrium with the condensed phase.

For the compound `OC1CCCCC1` [cyclohexanol], the mass density amounted to 941.4 ± 0.9 kg/m3.

On to `C1CCCCC1` [cyclohexane], for which the mass density came to 778.2 ± 0.7 kg/m3. The “vapor or sublimation pressure” value (414 K) was determined as 457.67 ± 21 kPa. For the setting “423.4 K”, the “vapor or sublimation pressure” value was 555.25 ± 21 kPa. The “vapor or sublimation pressure” value (433.7 K) came out at 677.81 ± 21 kPa.

`O=C1CCCCC1` [cyclohexanone]: the mass density came to 947.6 ± 0.9 kg/m3.
